# Experimental data as given in patent US20060111551A1, “Peptide having HTLV-1-specific CTL-inducing activity” (priority 2003, published 2006).
# Key:
# [1] = tested on: CTL induced from post-HSCT patient R07; settings: HLA-A24+ TOK cells pulsed with peptide; effector-to-target ratio 8; 18 hours; FIG. 5
# Method: Following 18 hours of incubation, IFN-γ in the supernatant was measured by ELISA assay. Values represent the mean of duplicate assays.
# IFN-γ production by the effector cells was measured by ELISA (Human IFN-γ ELISA Kit; Endogen, Woburn, Mass.) following 18 hours of incubation with target cells at various E/T ratios in duplicate.
# Subsequently, epitope mapping of these CTL was performed. […] The present inventors stained these cultured PBMCs with the tetramer of HLA-A*2402/Tax301-309.
# [2] = tested on: uncultured PBMC of recipient #37 and donor #36; experiment: IFN-γ ELISPOT assay of uncultured PBMC; assay type: cell-based, human; settings: overnight incubation with 10 μg/ml peptide, mean±SD of triplicate
# Excerpt: IFN-γ producing antigen-specific T cells were counted using IFN-γ-specific ELISPOT assays as previously described (J. Immunol. Methods 191, 131-142, 1996; J. Exp. Med. 186, 859-865, 1997). […] After 10-min reaction with BICP/NBT alkaline phosphatase substrate (SIGMA), colored spots on the dried membranes were counted using a KS-ELISPOT microscopy system (Carl Zeiss, Jena, Germany).
# It was next investigated whether there are any qualitative or quantitative differences in HTLV-I-specific CTL responses among pre-HSCT #37, post-HSCT #37, and donor #36. To examine HTLV-I-specific CTL precursor cell number without experimental biases by in vitro culture, frozen stored PBMC were immediately subjected to ELISPOT assay for IFN-γ production. The results of CTL precursor in the uncultured PBMC of recipient #37 and donor #36 responding to ILT-#37 or Tax epitope are shown in Table 1. […] Values represent the mean±SD of triplicate assays. Further, the results of ELISPOT assay of IFN-γ are shown by spot forming cells (SFC) per 10^5 PBMC.
# [3] = tested on: CTL line of post-HSCT patient #37; settings: LCL-#36 cells pulsed with 10 mM peptide; effector-to-target ratio 10; FIG. 3
# Method: Values represent the mean of specific lysis of triplicate assays.
# Cytotoxic activities were measured by 6-hour ^51Cr-release assay at various effector-to-target (E/T) cell ratios as described previously (J. Natl. Cancer Inst. 93, 1775-1783, 2001; J. Virol. 76, 7010-7019, 2002). Specific cytotoxicity was calculated as ([experimental ^51Cr release−spontaneous ^51Cr release]/[maximum ^51Cr release−spontaneous ^51Cr release]×100%).
sequence,measurement,setting,value
SFHSLHLLFEEYTNI [Tax301-315],reaction with responder cells (IFN-γ production against peptide-pulsed TOK cells),[1],selectively reacted
"LLFEEYTNI [Tax307-315, synthetic oligopeptide of HTLV-I Tax]","IFN-γ-producing SFC/10^5 PBMC, Donor #36",[2]; PBMC of donor #36,1 ± 0.6 SFC/10^5 PBMC
same,"IFN-γ-producing SFC/10^5 PBMC, Post-HSCT #37",[2]; PBMC of post-HSCT patient #37,2 ± 1 SFC/10^5 PBMC
same,"IFN-γ-producing SFC/10^5 PBMC, Pre-HSCT #37",[2]; PBMC of pre-HSCT patient #37,18 ± 2 SFC/10^5 PBMC
MAHFPGFGQSLLFGYPVYVFGDCV [Tax1-24],killing of peptide-pulsed LCL-#36 cells by CTL line of post-HSCT patient #37,[3],selectively killed
